# Measured values: patent publication US7410974B2, “Halogenated Quinazolinyl nitrofurans as antibacterial agents” (Ulysses Pharmaceutical Products, Inc., priority 2003, dated 2008)
# How the values were obtained:
# [1] = system: S. epidermidis ATCC 12228; assay: MIC broth microdilution (NCCLS); type: cell-based, Staphylococcus epidermidis; conditions: Staphylococcus epidermidis, ATCC12228; S. epidermidis ATCC 12228; read-out: MIC
# In short: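 Susceptibility by NCCLS microdilution: checked inoculum 10^5-10^6 CFU/ml, 24 h at 35° C, and growth assessed at 650 nm and by eye. Haemophilus was tested in HTM medium and Listeria with laked horse blood, each incubated under 5% CO2.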
# [2] = system: S. saprophyticus ATCC 15305; assay: MIC broth microdilution (NCCLS); type: cell-based, Staphylococcus saprophyticus; conditions: Staphylococcus saprophyticus, ATCC15305; S. saprophyticus ATCC 15305; read-out: MIC
# In short: (§1)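 NCCLS broth microdilution; inoculum 10^5-10^6 CFU/ml; 2-fold serial dilutions; 35° C, 24 h; A650 plus visual read. Media: MHBCA (S. saprophyticus, E. faecium), MHBCA + 2% laked horse blood (Listeria), HTM (Haemophilus), the last two under 5% CO2.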
# E. faecium ATCC 35667 = assay: MIC broth microdilution (NCCLS); type: cell-based, Enterococcus faecium; conditions: Enterococcus faecium, ATCC35667, E. faecium ATCC 35667; read-out: MIC
# In short: as §1
# MRSA strain Sa211c = assay: MIC broth microdilution, antibiotic resistant strain panel; type: cell-based, Staphylococcus aureus; conditions: Staphylococcus aureus; multi-resistant MRSA strain Sa211c; read-out: MIC
# In short: (§2)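 Broth microdilution per NCCLS in cation-adjusted Mueller Hinton broth, inoculum 10^5-10^6 CFU/ml, serial 2-fold dilutions, 24 h at 35 °C. MIC is lowest concentration with no visible growth, read at 650 nm and visually.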
# MRSA strain Sa212c = assay: as above; type: cell-based, Staphylococcus aureus; conditions: Staphylococcus aureus; multi-resistant MRSA strain Sa212c; read-out: MIC
# In short: as §2
# MRSA strain Sa220c = assay: as above; type: cell-based, Staphylococcus aureus; conditions: Staphylococcus aureus; multi-resistant MRSA strain Sa220c; read-out: MIC
# In short: as §2
# MRSA strain Sa224c = assay: as above; type: cell-based, Staphylococcus aureus; conditions: Staphylococcus aureus; multi-resistant MRSA strain Sa224c; read-out: MIC
# In short: as §2
# MRSA strain Sa228c = assay: as above; type: cell-based, Staphylococcus aureus; conditions: Staphylococcus aureus; multi-resistant MRSA strain Sa228c; read-out: MIC
# In short: as §2
# MRSA strain Sa234c = assay: as above; type: cell-based, Staphylococcus aureus; conditions: Staphylococcus aureus; multi-resistant MRSA strain Sa234c; read-out: MIC
# In short: as §2
# MRSA strain Sa248c = assay: as above; type: cell-based, Staphylococcus aureus; conditions: Staphylococcus aureus; multi-resistant MRSA strain Sa248c; read-out: MIC
# In short: as §2
# MRSA strain Sa249c = assay: as above; type: cell-based, Staphylococcus aureus; conditions: Staphylococcus aureus; multi-resistant MRSA strain Sa249c; read-out: MIC
# In short: as §2
# MRSA strain Sa253c = assay: as above; type: cell-based, Staphylococcus aureus; conditions: Staphylococcus aureus; multi-resistant MRSA strain Sa253c; read-out: MIC
# In short: as §2
# E. coli MC4100 = assay: MIC broth microdilution (NCCLS); type: cell-based; conditions: Escherichia coli; E. coli MC4100, pathotype Reference
# Experimental: (§3) Minimal Inhibitory Concentration (MIC) Determination. Bacteria (primary strain panel, TABLE 1). Susceptibility tests were performed following the recommendations from the National Committee for Clinical Standards (NCCLS). The MICs were determined by a broth microdilution technique using a final volume of 100 μl of cation-adjusted Mueller Hinton Broth (MHBCA) and a bacterial inoculum of 10^5-10^6 Colony Forming Units (CFU)/ml. The inocula were verified and precisely determined by applying 10-μl drops of 10-fold dilutions onto Triptic Soy Agar plates. The CFU were counted after an incubation of 24 h at 35° C. Any experiment showing an inoculum that was more or less than 10^5-10^6 CFU/ml was rejected. Control antibiotics and test compounds were prepared at a concentration equivalent to 2-fold the highest desired final concentration. Compounds were then diluted directly in the 96-well microtiter plates by serial 2-fold dilutions using a multichannel pipette. Microtiter plates were incubated during 24 h at 35° C. and growth was recorded by using a microtiterplate reader at 650 nm as well as by visual observation. The MIC was defined as the lowest concentration of compound yielding no visible growth. […] Fastidious bacteria. The medium used for Listeria monocytogenes, Neisseria meningitidis, and Campylobacter jejuni was MHBCA containing 2% laked horse blood. The medium used for Haemophilus influenzae and Branhamella (Moraxella) catarrhalis was HTM as recommended by the NCCLS. Cultures of these fastidious bacteria were incubated at 35° C. in a 5% CO2 atmosphere. […] The medium used for Bacteroides fragilis was Wilkins Chalgren broth and growth was allowed under an anaerobic atmosphere at 35° C. for 48 hours.
# [3] = system: E. coli ATCC 35150 (O157:H7); assay: MIC broth microdilution, E. coli strains; type: cell-based; conditions: Escherichia coli, ATCC35150
# Experimental: as §3
# (§4) Finally, compounds were also tested against populations of various clinical strains (antibiotic resistant strain panel, TABLE 1).
# E. coli Ec022c (EIEC) = assay: MIC broth microdilution, E. coli strains; type: cell-based; conditions: Escherichia coli, pathotype EIEC
# Experimental: as §3, §4
# E. coli Ec027c (EIEC) = assay: MIC broth microdilution, E. coli strains; type: cell-based; conditions: Escherichia coli, pathotype EIEC
# Experimental: as §3, §4
# E. coli Ec117c (EIEC) = assay: MIC broth microdilution, E. coli strains; type: cell-based; conditions: Escherichia coli, pathotype EIEC
# Experimental: as §3, §4
# E. coli Ec118c (EIEC) = assay: MIC broth microdilution, E. coli strains; type: cell-based; conditions: Escherichia coli, pathotype EIEC
# Experimental: as §3, §4
# E. coli Ec119c (EIEC) = assay: MIC broth microdilution, E. coli strains; type: cell-based; conditions: Escherichia coli, pathotype EIEC
# Experimental: as §3, §4
# [4] = system: E. coli d25-ALR-pen14 (O157:H7); assay: MIC broth microdilution, E. coli strains; type: cell-based; conditions: Escherichia coli
# Experimental: as §3, §4
# [5] = system: E. coli d4-OLR-pen10 (O157:H7); assay: MIC broth microdilution, E. coli strains; type: cell-based; conditions: Escherichia coli
# Experimental: as §3, §4
SMILES,MIC [1],MIC [2],MIC (E. faecium ATCC 35667),MIC (MRSA strain Sa211c),MIC (MRSA strain Sa212c),MIC (MRSA strain Sa220c),MIC (MRSA strain Sa224c),MIC (MRSA strain Sa228c),MIC (MRSA strain Sa234c),MIC (MRSA strain Sa248c),MIC (MRSA strain Sa249c),MIC (MRSA strain Sa253c),MIC (E. coli MC4100),MIC [3],MIC (E. coli Ec022c (EIEC)),MIC (E. coli Ec027c (EIEC)),MIC (E. coli Ec117c (EIEC)),MIC (E. coli Ec118c (EIEC)),MIC (E. coli Ec119c (EIEC)),MIC [4],further results
"O=[N+]([O-])c1ccc(C=Cc2nc(Nc3ccc(O)cc3)c3cc(F)ccc3n2)o1 [Compound V, 6-fluoro-2-[2-(5-nitro-2-furyl)vinyl]-4-(p-hydroxyanilino)-quinazoline]",0.03 µg/mL,0.015 to 0.03 µg/mL,0.06 µg/mL,≤ 0.06 µg/mL,0.125 µg/mL,≤ 0.06 µg/mL,≤ 0.06 µg/mL,≤ 0.06 µg/mL,≤ 0.06 µg/mL,≤ 0.06 µg/mL,≤ 0.06 µg/mL,≤ 0.06 µg/mL,1 µg/mL,1 µg/mL,1 µg/mL,1 µg/mL,1 µg/mL,1 µg/mL,2 µg/mL,1 µg/mL,MIC [5]: 1 µg/mL
O=C1CN(/N=C/c2ccc([N+](=O)[O-])o2)C(=O)N1 [Nitrofurantoin],16 µg/mL,8 µg/mL,64 µg/mL,16 to 32 µg/mL,32 µg/mL,16 µg/mL,16 µg/mL,16 to 32 µg/mL,16 to 32 µg/mL,16 µg/mL,16 µg/mL,16 µg/mL,8 to 16 µg/mL,2 µg/mL,16 µg/mL,16 µg/mL,8 to 16 µg/mL,16 µg/mL,16 µg/mL,16 µg/mL,MIC [5]: 16 µg/mL
